The record followed here is patent publication US4435391A, “Dibenzoxazepine derivative, and pharmaceutical composition comprising the same” (Chugai Seiyaku Kabushiki Kaisha, priority 1980, dated 1984).

Read-outs that look alike come from different tables or passages of the source.

Assay [1] relates to lipid peroxide level (TBA) of blood. Nature of the assay: Lipid peroxide (TBA) level of blood in alloxan-treated mice (Experiment 1). The assay is classed as in vivo, male mice of ddY strain. Particulars: Table 1, 300 mg/kg orally, 22 h after alloxan 75 mg/kg i.v., blood drawn 48 h after alloxan, vs untreated mice; for inhibition in vivo at 300 mg/kg: Mus musculus, po, read-out: Percent Reduction TBA (x ± S.E.). The protocol:
(§1) Male mice of ddY strain weighing between 25 and 30 g were divided into groups of 10 members each and administered intravenously 75 mg/kg of alloxan. Twenty-two hours later, each mouse was administered orally 300 mg/kg of a test compound of this invention as suspended in 1% gum arabic. […] The lipid peroxide level (TBA) of blood was determined with Lipoperoxide-Test Wako (Wako Pure Chemical Industries, Ltd., Japan). The level of blood sugar (BG) was determined with New Blood Sugar Test (Berlinger Mannheim AG., West Germany). […] As a positive control, tocopherol was used.

Assay [2] relates to triglyuride (TG) level of plasma. Nature of the assay: Plasma triglyceride (TG) in Triton-injected mice (Experiment 2). The note with it: Table 2, 150 mg/kg immediately and 8 hours after Triton WR-1399 500 mg/kg i.v., blood drawn 24 h after Triton; for inhibition in vivo: Mus musculus, iv, read-out: Percent Reduction TG (x ± S.E.). The class given is in vivo, mice of ddY strain. The protocol:
(§2) The mice of ddY strain weighing between 25 and 30 g were fasted overnight and then Triton WR-1399(500 mg/kg) (Ruger Chemicals Co.) was intravenously injected into the mice. Immediately and 8 hours after the injection, each mouse was administered 150 mg/kg of a test compound of this invention as suspended in 1% aqueous methylcellulose.
(§3) 24 Hours after the injection of Triton, the blood was drawn from the heart. The cholesterol (TC) and triglyuride (TG) levels of plasma were determined with RaBASuper (Chugai Seiyaku K.K., Japan).
(§4) As a positive control, chlofibrate were used.

For assay [3], the system named is platelets (platelet rich plasma). As to the kind of experiment: Inhibition of platelet aggregation in platelet rich plasma (Experiment 3). The class given is cell-based, SD strain rats. The note with it: for inhibition at 100 µM: Rattus norvegicus, Platelet. As to the method:
Platelet rich plasma samples were prepared from the blood of SD strain rats, and to 0.5 ml of the samples, test compounds in the form of a solution in dimethyl sulfoxide (DMSO) were added in such an amount that the concentration of the compounds in the mixture was 1×10^-4 M. The assay media containing aspirin were used as a control. After incubation for one minute, arachidonic acid, collagen and adenosine diphosphate (ADP) were added to the mixture in concentrations of 1×10^-4 M, 1.5×10^-3 M and 1×10^-6 M, respectively, to aggregate the platelets. The aggregation level was determined with an aggregometer. CORNING-EEL MODEL 16P (Manufactured by Evans Electro Selenium Ltd.) and the percent inhibition of platelets was calculated from the following equation: [formula]

Assay [4] deals with cholesterol (TC) level of plasma. Nature of the assay: Plasma cholesterol (TC) in Triton-injected mice (Experiment 2). The class given is in vivo, mice of ddY strain. Particulars: Table 2, 150 mg/kg immediately and 8 hours after Triton WR-1399 500 mg/kg i.v., blood drawn 24 h after Triton; for inhibition in vivo: Mus musculus, iv, read-out: Percent Reduction TC (x ± S.E.). The protocol:
as §2, §3, §4

Assay [5] has as its system level of blood sugar (BG). As to the kind of experiment: Blood sugar (BG) level in alloxan-treated mice (Experiment 1). The assay is classed as in vivo, male mice of ddY strain. Particulars: Table 1; 300 mg/kg orally, 22 h after alloxan 75 mg/kg i.v.; blood drawn 48 h after alloxan; vs untreated mice. As to the method:
as §1

The mark [6] stands for this setting: Table 3 (own numbering), compound 1×10^-4 M, aggregation by ADP 1×10^-6 M, read-out: Percent Inhibition of Aggregation, ADP.
The mark [7] stands for this setting: Table 3 (own numbering), compound 1×10^-4 M, aggregation by arachidonic acid 1×10^-4 M, read-out: Percent Inhibition of Aggregation, Arachidonic acid.
The mark [8] stands for this setting: Table 3 (own numbering), compound 1×10^-4 M, aggregation by collagen 1.5×10^-3 M, read-out: Percent Inhibition of Aggregation, Collagen.

Take “11-methyl-3-methoxydibenz[b,f][1,4]oxazepine-8-carboxylic acid [Compound 7 (Table 1)]”: the “Percent Reduction TBA (x ± S.E.)” value in assay [1] came out at 61.1%. Moreover, in assay [2], the “Percent Reduction TG (x ± S.E.)” value is 17.8%.
The inhibition is the drop in the measured response relative to a control, in per cent. Turning to `CCOC(=O)c1ccc2c(c1)N=C(C)c1ccc(C)cc1O2` [Compound 3 (Table 3)], the inhibition at 100 µM in assay [3] (setting [6]) came to 50%; in assay [3] (setting [7]), 55%; in assay [3] (setting [8]), 43%.
Take `CCOC(=O)c1ccc2c(c1)N=Cc1ccc(C)cc1O2` [Compound 3]: the inhibition in vivo at 300 mg/kg in assay [1] is 23%. The inhibition in vivo amounted to 17.8% in assay [4] and 18.7% in assay [2]. The “Percent Reduction BG (x ± S.E.)” value in assay [5] is reported as 16.5%.
Take `CCOC(=O)c1ccc2c(c1)N=C(CC)c1ccc(C)cc1O2` [Compound 4 (Table 1)]: the inhibition at 100 µM in assay [3] (setting [6]) was 50%; in assay [3] (setting [7]), 60%; in assay [3] (setting [8]), 47%.
Turning to `CCOC(=O)c1ccc2c(c1)N=C(C)c1cccc(C)c1O2` [Compound 4 (Table 3)], the results for the inhibition at 100 µM in assay [3] (setting [6]), in assay [3] (setting [7]) and in assay [3] (setting [8]) were 51%, 60% and 48%, respectively.
The matching figures for `CCOC(=O)c1ccc2c(c1)N=C(C)c1cccc(OC)c1O2` [Compound 5 (Table 3)]: 35%, 45% and 30%.
Turning to `CCOC(=O)c1ccc2c(c1)N=C(CC)c1ccc(OC)cc1O2` [Compound 6], in assay [1], the inhibition in vivo at 300 mg/kg was 54%. For the same compound, the inhibition in vivo in assay [4] was 19.5%; in assay [2], 19.6%.
For the compound `COc1ccc2c(c1)Oc1ccc(C(=O)O)cc1N=C2C` [Compound 7], in assay [1], the inhibition in vivo at 300 mg/kg was 64.8%. The inhibition in vivo stood at 17.3% in assay [4] and 18.8% in assay [2]. The “Percent Reduction BG (x ± S.E.)” value in assay [5] is on record as 15.7%.
On the same counts, the results for `CC1=Nc2cc(C(=O)O)ccc2Oc2cc(C)ccc21` [Compound 8] are 52%, 18.6%, 19.3% and 16.3%.
For `CCC1=Nc2cc(C(=O)O)ccc2Oc2cc(OC)ccc21` [Compound 9], the inhibition in vivo at 300 mg/kg in assay [1] worked out at 67.7%. The inhibition in vivo stood at 17.9% in assay [4] and 18.5% in assay [2]. In assay [5], the “Percent Reduction BG (x ± S.E.)” value amounted to 18.4%.
On to `COC(=O)c1ccc2c(c1)N=Cc1cccc(OC)c1O2` [Compound 10], for which the inhibition in vivo at 300 mg/kg in assay [1] was 50.3%. Besides, the inhibition in vivo worked out at 20.7% in assay [4] and 24.5% in assay [2]. Besides, the values for the inhibition at 100 µM in assay [3] (setting [6]), in assay [3] (setting [7]) and in assay [3] (setting [8]) were 36%, 38% and 34%, respectively.
As to `CCCOC(=O)c1ccc2c(c1)N=Cc1cccc(OC)c1O2` [Compound 11], the inhibition in vivo at 300 mg/kg in assay [1] is 38.6%. The values for the inhibition in vivo in assay [4] and in assay [2] were 19.2% and 21.3%, respectively. In addition, the figures for the inhibition at 100 µM in assay [3] (setting [6]), in assay [3] (setting [7]) and in assay [3] (setting [8]) were 43%, 42% and 40%, respectively.
As to `CCCCOC(=O)c1ccc2c(c1)N=Cc1cccc(OC)c1O2` [Compound 12], the inhibition in vivo at 300 mg/kg in assay [1] was found to be 19.7%. In addition, the inhibition in vivo in assay [4] was determined as 17.4%; in assay [2], 19.3%. Also, the inhibition at 100 µM came out at 35% in assay [3] (setting [6]), 43% in assay [3] (setting [7]) and 37% in assay [3] (setting [8]).
For `O=C(O)c1ccc2c(c1)N=Cc1cc(Cl)ccc1O2` [Compound 13], in assay [1], the inhibition in vivo at 300 mg/kg was determined as 18.3%. The inhibition in vivo in assay [4] amounted to 14.5%; in assay [2], 15.2%. Moreover, the “Percent Reduction BG (x ± S.E.)” value in assay [5] was found to be 10.4%.
On the same counts, the results for `CCOc1cccc2c1Oc1ccc(C(=O)O)cc1N=C2` [Compound 14] are 63.4%, 19.5%, 21.3% and 18.7%.
The matching figures for `Cc1ccc2c(c1)C=Nc1cc(C(=O)O)ccc1O2` [Compound 15]: 23.8%, 17.7%, 19.4% and 16.5%.
In the case of `CCOC(=O)c1ccc2c(c1)N=C(CC)c1cc(OC)cc(OC)c1O2` [Compound 16 (Table 1)], the inhibition at 100 µM was determined as 44% in assay [3] (setting [6]), 52% in assay [3] (setting [7]) and 47% in assay [3] (setting [8]).
On to `CCOC(=O)c1ccc2c(c1)N=C(CC)c1cc(OC)cc(OC)c1O2` [Compound 16], for which, in assay [1], the inhibition in vivo at 300 mg/kg amounted to 28.5%. The inhibition in vivo amounted to 16.4% in assay [4] and 17.8% in assay [2].
On to `CCOC(=O)c1ccc2c(c1)N=C(C=Cc1ccccc1)c1cc(OC)ccc1O2` [Compound 17 (Table 1)], for which the inhibition at 100 µM was determined as 46% in assay [3] (setting [6]), 48% in assay [3] (setting [7]) and 45% in assay [3] (setting [8]).
In the case of `CCOC(=O)c1ccc2c(c1)N=C(C=Cc1ccccc1)c1cc(OC)ccc1O2` [Compound 17], the inhibition in vivo at 300 mg/kg in assay [1] was determined as 34.4 ± 2.9%. Moreover, the figures for the inhibition in vivo in assay [4] and in assay [2] were 17.4 ± 3.5% and 19.7 ± 4.5%, respectively.
Regarding `CCOC(=O)c1ccc2c(c1)N=C(c1ccccc1)c1ccc(OC)cc1O2` [Compound 18 (Table 1)], the inhibition at 100 µM was found to be 40% in assay [3] (setting [6]), 50% in assay [3] (setting [7]) and 43% in assay [3] (setting [8]).
Regarding `CCOC(=O)c1ccc2c(c1)N=C(c1ccccc1)c1ccc(OC)cc1O2` [Compound 18], the inhibition in vivo at 300 mg/kg in assay [1] turned out to be 41.7 ± 3.2%. The inhibition in vivo in assay [4] stood at 18.4 ± 2.9%; in assay [2], 21.3 ± 3.2%.
Turning to `CCOC(=O)c1ccc2c(c1)N=C(c1cccc(C)c1)c1ccc(OC)cc1O2` [Compound 19], the inhibition in vivo at 300 mg/kg in assay [1] was found to be 34.9%. The inhibition in vivo in assay [4] stood at 20.1%; in assay [2] it was 19.7%. Also, the inhibition at 100 µM in assay [3] (setting [6]) was found to be 39%; in assay [3] (setting [7]) it was 45%; in assay [3] (setting [8]), 41%.
Take `CCCC1=Nc2cc(C(=O)OCC)ccc2Oc2cc(C)ccc21` [Compound 20]: in assay [1], the inhibition in vivo at 300 mg/kg was found to be 39.6%. For the same compound, the inhibition in vivo in assay [4] came out at 16.5%; in assay [2] it was 17.4%. Moreover, the inhibition at 100 µM in assay [3] (setting [6]) turned out to be 47%; in assay [3] (setting [7]), 60%; in assay [3] (setting [8]), 50%.
On to `CC(=O)Oc1ccccc1C(=O)O` [aspirin, reference compound], for which the inhibition at 100 µM came out at 17% in assay [3] (read-out: Percent Inhibition of Aggregation, ADP); 100% in assay [3] (read-out: Percent Inhibition of Aggregation, Arachidonic acid); 8% in assay [3] (read-out: Percent Inhibition of Aggregation, Collagen).
Regarding `CCOC(=O)C(C)(C)Oc1ccc(Cl)cc1` [chlofibrate, reference compound], the figures for the inhibition in vivo in assay [4] and in assay [2] were 13.8% and 9.5%, respectively.
For the compound `Cc1c(C)c2c(c(C)c1O)CCC(C)(CCCC(C)CCCC(C)CCCC(C)C)O2` (stereo not drawn) [α-tocopherol, reference compound], the inhibition in vivo at 300 mg/kg in assay [1] is 51.7%.
As for “ethyl 11-methyl-3-methoxydibenz[b,f][1,4]oxazepine-8-carboxylate [Compound 5 (Table 1)]”, in assay [1], the “Percent Reduction TBA (x ± S.E.)” value is 35.2%. In addition, the “Percent Reduction TC (x ± S.E.)” value in assay [4] is 18.4%. In addition, the “Percent Reduction TG (x ± S.E.)” value in assay [2] is recorded as 18.7%. Also, the “Percent Inhibition of Aggregation, ADP” value in assay [3] (Table 3 (own numbering), compound 1×10^-4 M, aggregation by ADP 1×10^-6 M) was 45%. Besides, in assay [3] (Table 3 (own numbering), compound 1×10^-4 M, aggregation by arachidonic acid 1×10^-4 M), the “Percent Inhibition of Aggregation, Arachidonic acid” value was 63%. Besides, in assay [3] (Table 3 (own numbering), compound 1×10^-4 M, aggregation by collagen 1.5×10^-3 M), the “Percent Inhibition of Aggregation, Collagen” value was 50%.
